Results: patent US9079899B2, “Anti-staphylococcal celecoxib derivatives” (THE OHIO STATE UNIVERSITY, priority 2010, dated 2015)
≈ marks a conversion by molar mass, not a printed value.

Key:
Type in all cases: cell-based
S. aureus (ATCC 29213) = test: MIC, broth microdilution; conditions: CAMHB, 24 h, 37° C.
[1] = tested on: S. epidermidis (ATCC 35984); test: MIC, broth microdilution; conditions: CAMHB, 24 h, 37° C.
[2] = tested on: HT-29 human colon adenocarcinoma cells; test: Antiproliferative assay (MTT); conditions: 24-h exposure, 10% FBS-supplemented RPMI 1640, MTT
Description: As celecoxib has been reported to be cytotoxic to cancer cells, the growth inhibitory activities of celecoxib and selected derivatives were assessed in. HT-29 human colon adenocarcinoma cells after 24-h exposure in 10% FBS-supplemented RPMI 1640 medium.
Antiproliferative assay. The cytotoxicity of individual test agents in HT-29 human colon adenocarcinoma cells was evaluated by using the 3-(4,5-dimethylthiazol-2-yl)-2,5-diphenyltetrazolium (MTT) assay. Briefly, HT-29 cells were seeded into 96-well plates at 1×10^4 cells/well (with a minimum of 6 wells per test condition) in RPMI 1640 medium supplemented with 10% FBS and 10 μg/ml of gentamicin. After overnight incubation at 37° C. under 5% CO2, the medium from each well was removed and replenished with fresh aliquots of the same medium containing various concentrations of test agents dissolved in DMSO (final concentration, 0.1%). Control cells were treated with DMSO alone at a concentration equal to that in drug-treated cells. After 24 h of drug exposure, the medium was removed and replaced by 100 μl of 0.5 mg/ml MTT in 10% FBS-containing medium, and the cells were incubated in the CO2 incubator at 37° C. for 2 h. Subsequently, medium was removed from each well, and the reduced MTT dye was dissolved with 100 μl of DMSO per well. Absorbance at 570 nm was measured with a plate reader. The 50% inhibitory concentration (IC50) of each drug was determined from dose-response curves by using CalcuSyn software (Biosoft, Cambridge, United Kingdom).

Row | Structure (SMILES) | MIC S. aureus (ATCC 29213) (S. aureus (ATCC 29213)) | MIC S. epidermidis (ATCC 35984) [1] | IC50 HT-29 cells [2] [µg/mL] | MIC (S. aureus (ATCC 29213); Staphylococcus aureus, ATCC29213, 24 h, read-out: MIC S. aureus (ATCC 29213)) [µg/mL] | IC50 ([2]; Homo sapiens, HT-29) [µg/mL]
1 | FC(F)(F)c1cc(-c2ccc3c(ccc4ccccc43)c2)n(-c2ccccc2)n1 [Compound 21] | did not exhibit appreciable activity at 64 μg/ml or improved activity relative to celecoxib | did not exhibit appreciable activity at 64 μg/ml or improved activity relative to celecoxib | – | – | –
2 | NS(=O)(=O)c1ccc(-n2nc(C(F)(F)F)cc2-c2ccc(-c3ccc(Cl)cc3)cc2)cc1 [Compound 11] | 4 µg/mL (≈ 8.37 µM) | 8 µg/mL (≈ 16.7 µM) | 12.5 (≈ 26.2 µM) | – | –
3 | NS(=O)(=O)Nc1ccc(-n2nc(C(F)(F)F)cc2-c2ccc3ccccc3c2)cc1 [Compound 45, N-[4-(5-Naphthalen-2-yl-3-trifluoromethyl-pyrazol-1-yl)-phenyl]-aminosulfonamide] | – | – | – | 1 (≈ 2.31 µM) | 19 (≈ 43.9 µM)
4 | CCCCc1ccc(-c2cc(C(F)(F)F)nn2-c2ccc(C(N)=O)cc2)cc1 [Compound 10] | did not exhibit appreciable activity at 64 μg/ml or improved activity relative to celecoxib | did not exhibit appreciable activity at 64 μg/ml or improved activity relative to celecoxib | – | – | –
5 | NCC(=O)Nc1ccc(-n2nc(C(F)(F)F)cc2-c2ccc3c(c2)Nc2ccccc2S3)cc1 [Compound 24] | 4 µg/mL (≈ 8.31 µM) | 4 µg/mL (≈ 8.31 µM) | 6.2 (≈ 12.9 µM) | – | –
6 | NCC(=O)Nc1ccc(-n2nc(C(F)(F)F)cc2-c2ccc3c(ccc4ccccc43)c2)cc1 [Compound 23] | 4 µg/mL (≈ 8.69 µM) | 4 µg/mL (≈ 8.69 µM) | 3.6 (≈ 7.82 µM) | – | –
7 | NCCCC[C@@H](N)C(=O)Nc1ccc(-n2nc(C(F)(F)F)cc2-c2ccc3oc4ccccc4c3c2)cc1 [Compound 32] | did not exhibit appreciable activity at 64 μg/ml or improved activity relative to celecoxib | did not exhibit appreciable activity at 64 μg/ml or improved activity relative to celecoxib | – | – | –
8 | NCCCC[C@H](N)C(=O)Nc1ccc(-n2nc(C(F)(F)F)cc2-c2ccc3c(ccc4ccccc43)c2)cc1 [Compound 34] | 2 µg/mL (≈ 3.76 µM) | 4 µg/mL (≈ 7.52 µM) | 19.5 (≈ 36.7 µM) | – | –
9 | NCCCC[C@H](N)C(=O)Nc1ccc(-n2nc(C(F)(F)F)cc2-c2ccc(-c3ccc(C(F)(F)F)cc3)cc2)cc1 [Compound 33] | 4 µg/mL (≈ 6.95 µM) | 4 µg/mL (≈ 6.95 µM) | 3.3 (≈ 5.73 µM) | – | –
10 | NCCCC[C@@H](N)C(=O)Nc1ccc(-n2nc(C(F)(F)F)cc2-c2ccc3c(c2)Nc2ccccc2S3)cc1 [Compound 31] | 4 µg/mL (≈ 7.24 µM) | 4 µg/mL (≈ 7.24 µM) | 17.5 (≈ 31.7 µM) | – | –
11 | NCCCC[C@@H](N)C(=O)Nc1ccc(-n2nc(C(F)(F)F)cc2-c2ccc3c(ccc4ccccc43)c2)cc1 [Compound 30] | 4 µg/mL (≈ 7.52 µM) | 4 µg/mL (≈ 7.52 µM) | 3.2 (≈ 6.02 µM) | – | –
12 | NCCC(=O)Nc1ccc(-n2nc(C(F)(F)F)cc2-c2ccc(-c3ccc(C(F)(F)F)cc3)cc2)cc1 [Compound 26] | 4 µg/mL (≈ 7.72 µM) | 4 µg/mL (≈ 7.72 µM) | 4.2 (≈ 8.1 µM) | – | –
13 | NCCC(=O)Nc1ccc(-n2nc(C(F)(F)F)cc2-c2ccc3c(c2)Nc2ccccc2S3)cc1 [Compound 28] | 4 µg/mL (≈ 8.07 µM) | 4 µg/mL (≈ 8.07 µM) | 7.5 (≈ 15.1 µM) | – | –
14 | NCCC(=O)Nc1ccc(-n2nc(C(F)(F)F)cc2-c2ccc3oc4ccccc4c3c2)cc1 [Compound 29] | 4 µg/mL (≈ 8.61 µM) | 4 µg/mL (≈ 8.61 µM) | 7.2 (≈ 15.5 µM) | – | –
15 | NCC(=O)Nc1ccc(-n2nc(C(F)(F)F)cc2-c2ccc(-c3ccc(C(F)(F)F)cc3)cc2)cc1 [Compound 22] | did not exhibit appreciable activity at 64 μg/ml or improved activity relative to celecoxib | did not exhibit appreciable activity at 64 μg/ml or improved activity relative to celecoxib | – | – | –
